Results published in US10233144B2, “Crystalline form of AHU377, preparation method and use thereof” (CRYSTAL PHARMATECH CO., LTD., priority 2015, dated 2019).

Test: Hygroscopicity assessment by dynamic vapor sorption (DVS)
Format: physicochemical
Details: 25° C.; for weight gain under 80% RH: DVS, 10 mg sample
Procedure: Dynamic Vapor Sorption (DVS) was measured via a SMS (Surface Measurement Systems) DVS Intrinsic. Typical Parameters for DVS test are listed below. Temperature: 25° C. Gas and flow rate: N2, 200 mL/min dm/dt: 0.002%/min RH range: 0% RH to 95% RH 10 mg of crystalline Form I of the present disclosure was tested using dynamic vapor sorption (DVS). 4. The DVS isotherm plot of crystalline Form I is depicted in FIG. 4. About hygroscopicity characterization description and definition of hygroscopicity (Chinese Pharmacopoeia 2010 edition appendix XIX J Drug hygroscopic test guidelines, test at 25° C.±1° C., 80% Relative Humidity) • deliquescent: sufficient water is absorbed to form a liquid; • very hygroscopic: increase in mass is equal to or greater than 15 percent; • hygroscopic: increase in mass is less than 15 percent and equal to or greater than 2 percent; • slightly hygroscopic: increase in mass is less than 2 percent and equal to or greater than 0.2 percent. • no or almost no hygroscopic: increase in mass is less than 0.2 percent

Compound: CCOC(=O)[C@H](C)C[C@@H](Cc1ccc(-c2ccccc2)cc1)NC(=O)CCC(=O)O [Crystalline Form I of AHU377, (2R,4S)-5-(Biphenyl-4-yl)-4-[(3-carboxypropionyl)amino]-2-methylpentanoic acid ethyl ester]
- hygroscopicity (class according to hygroscopic test guidelines) (Chinese Pharmacopoeia 2010 appendix XIX J, 80% Relative Humidity): slightly hygroscopic (increase in mass is less than 2 percent and equal to or greater than 0.2 percent)
- weight gain under 80% RH: 0.35%
- weight gain under 80% RH (listed as crystalline Form I): 0.35%
